# Tested on: C. difficile BAA 1805
# Test: MIC against C. difficile BAA 1805
# Type: cell-based
# Details: Clostridioides difficile, BAA1805
row,Compound,MIC
1,CSC1O[C@H]([C@H](NC(=O)[C@@H]2[C@@H]3OCC=CC[C@H]3CN2C)[C@H](C)Sc2ccc(-c3cncnc3)cc2)C(O)[C@@H](O)[C@H]1O (stereo partly drawn) [FSA-212034],0.5 µg/mL

# Same assay, conditions: Clostridioides difficile, BAA1805; C. difficile BAA 1805; read-out: MIC
row,Compound,MIC
1,CSC1O[C@H]([C@H](NC(=O)[C@H]2NC[C@@H]3C[C@H]4C[C@H]4CO[C@H]32)[C@H](C)Cl)C(O)[C@@H](O)[C@H]1O (stereo in doubt) [FSA-507007],4 µg/mL

# Tested on: S. pneumoniae MMX 3031 cMefA
# Test: MIC against S. pneumoniae MMX 3031 cMefA
# Type: cell-based
# Details: Streptococcus pneumoniae, MMX3031CMEFA
row,Compound,MIC
1,CSC1O[C@H]([C@H](NC(=O)[C@@H]2[C@@H]3OCC=CC[C@H]3CN2C)[C@H](C)Sc2ccc(-c3cncnc3)cc2)C(O)[C@@H](O)[C@H]1O (stereo partly drawn) [FSA-212034],≤ 0.06 µg/mL

# Tested on: S. aureus MP-549 msr(a) USA 300
# Test: MIC against S. aureus MP-549 msr(a) USA 300
# Type: cell-based
# Details: Staphylococcus aureus, USA300, S. aureus MP-549 msr(a) USA 300
row,Compound,MIC
1,CSC1O[C@H]([C@H](NC(=O)[C@@H]2[C@@H]3OCC=CC[C@H]3CN2C)[C@H](C)Sc2ccc(-c3cncnc3)cc2)C(O)[C@@H](O)[C@H]1O (stereo partly drawn) [FSA-212034],0.5 µg/mL

# Tested on: K. pneumoniae ATCC 10031
# Test: MIC against K. pneumoniae ATCC 10031
# Type: cell-based
# Details: Klebsiella pneumoniae, ATCC10031; K. pneumoniae ATCC 10031; read-out: MIC
row,Compound,MIC
1,CSC1O[C@H]([C@H](NC(=O)[C@H]2NC[C@@H]3C[C@H]4C[C@H]4CO[C@H]32)[C@H](C)Cl)C(O)[C@@H](O)[C@H]1O (stereo in doubt) [FSA-507007],> 64 µg/mL

# Tested on: E. coli ATCC 25922
# Test: MIC against E. coli ATCC 25922
# Type: cell-based
# Details: Escherichia coli, ATCC25922; E. coli ATCC 25922; read-out: MIC
row,Compound,MIC
1,CSC1O[C@H]([C@H](NC(=O)[C@H]2NC[C@@H]3C[C@H]4C[C@H]4CO[C@H]32)[C@H](C)Cl)C(O)[C@@H](O)[C@H]1O (stereo in doubt) [FSA-507007],> 64 µg/mL

# Tested on: P. aeruginosa MMX Mex parent strain
# Test: MIC against P. aeruginosa MMX Mex parent strain
# Type: cell-based
# Details: Pseudomonas aeruginosa
row,Compound,MIC
1,CSC1O[C@H]([C@H](NC(=O)[C@@H]2[C@@H]3OCC=CC[C@H]3CN2C)[C@H](C)Sc2ccc(-c3cncnc3)cc2)C(O)[C@@H](O)[C@H]1O (stereo partly drawn) [FSA-212034],> 64 µg/mL

# Same assay, conditions: Pseudomonas aeruginosa; P. aeruginosa MMX Mex parent strain; read-out: MIC
row,Compound,MIC
1,CSC1O[C@H]([C@H](NC(=O)[C@H]2NC[C@@H]3C[C@@H](c4ccc(C(F)(F)F)cc4)CCO[C@H]32)[C@H](C)Cl)C(O)[C@@H](O)[C@H]1O (stereo partly drawn) [FSA-509019],> 64 µg/mL
2,CSC1O[C@H]([C@H](NC(=O)[C@H]2NC[C@@H]3C[C@H]4C[C@H]4CO[C@H]32)[C@H](C)Cl)C(O)[C@@H](O)[C@H]1O (stereo in doubt) [FSA-507007],> 64 µg/mL

# Tested on: S. aureus MMX 3035 cErmA
# Test: MIC against S. aureus MMX 3035 cErmA
# Type: cell-based
# Details: Staphylococcus aureus, MMX3035CERMA; S. aureus MMX 3035 cErmA; read-out: MIC
row,Compound,MIC
1,CSC1O[C@H]([C@H](NC(=O)[C@H]2NC[C@@H]3C[C@H]4C[C@H]4CO[C@H]32)[C@H](C)Cl)C(O)[C@@H](O)[C@H]1O (stereo in doubt) [FSA-507007],> 64 µg/mL

# Tested on: S. pneumoniae MMX 3028 cErmB
# Test: MIC against S. pneumoniae MMX 3028 cErmB
# Type: cell-based
# Details: Streptococcus pneumoniae, MMX3028CERMB; S. pneumoniae MMX 3028 cErmB; read-out: MIC
row,Compound,MIC
1,CSC1O[C@H]([C@H](NC(=O)[C@@H]2[C@@H]3OCC=CC[C@H]3CN2C)[C@H](C)Sc2ccc(-c3cncnc3)cc2)C(O)[C@@H](O)[C@H]1O (stereo partly drawn) [FSA-212034],4 µg/mL

# Tested on: S. pyogenes ATCC 19615
# Test: MIC against S. pyogenes ATCC 19615
# Type: cell-based
# Details: Streptococcus pyogenes, ATCC19615; S. pyogenes ATCC 19615; read-out: MIC
row,Compound,MIC
1,CSC1O[C@H]([C@H](NC(=O)[C@H]2NC[C@@H]3C[C@H]4C[C@H]4CO[C@H]32)[C@H](C)Cl)C(O)[C@@H](O)[C@H]1O (stereo in doubt) [FSA-507007],≤ 0.06 µg/mL
2,CSC1O[C@H]([C@H](NC(=O)[C@@H]2[C@@H]3OCC=CC[C@H]3CN2C)[C@H](C)Sc2ccc(-c3cncnc3)cc2)C(O)[C@@H](O)[C@H]1O (stereo partly drawn) [FSA-212034],≤ 0.06 µg/mL

# Tested on: S. aureus Micromyx USA 300
# Test: MIC against S. aureus Micromyx USA 300
# Type: cell-based
# Details: Staphylococcus aureus, USA300; S. aureus Micromyx USA 300; read-out: MIC
row,Compound,MIC
1,CSC1O[C@H]([C@H](NC(=O)[C@H]2NC[C@@H]3C[C@@H](c4ccc(C(F)(F)F)cc4)CCO[C@H]32)[C@H](C)Cl)C(O)[C@@H](O)[C@H]1O (stereo partly drawn) [FSA-509019],0.5 µg/mL

# Tested on: P. aeruginosa ATCC 27853
# Test: MIC against P. aeruginosa ATCC 27853
# Type: cell-based
# Details: Pseudomonas aeruginosa, ATCC27853
row,Compound,MIC
1,CSC1O[C@H]([C@H](NC(=O)[C@@H]2[C@@H]3OCC=CC[C@H]3CN2C)[C@H](C)Sc2ccc(-c3cncnc3)cc2)C(O)[C@@H](O)[C@H]1O (stereo partly drawn) [FSA-212034],> 64 µg/mL

# Same assay, conditions: Pseudomonas aeruginosa, ATCC27853; P. aeruginosa ATCC 27853; read-out: MIC
row,Compound,MIC
1,CSC1O[C@H]([C@H](NC(=O)[C@H]2NC[C@@H]3C[C@@H](c4ccc(C(F)(F)F)cc4)CCO[C@H]32)[C@H](C)Cl)C(O)[C@@H](O)[C@H]1O (stereo partly drawn) [FSA-509019],> 64 µg/mL
2,CSC1O[C@H]([C@H](NC(=O)[C@H]2NC[C@@H]3C[C@H]4C[C@H]4CO[C@H]32)[C@H](C)Cl)C(O)[C@@H](O)[C@H]1O (stereo in doubt) [FSA-507007],> 64 µg/mL

# Tested on: E. coli ATCC 15922
# Test: MIC against E. coli ATCC 15922
# Type: cell-based
# Details: Escherichia coli, ATCC15922
row,Compound,MIC
1,CSC1O[C@H]([C@H](NC(=O)[C@@H]2[C@@H]3OCC=CC[C@H]3CN2C)[C@H](C)Sc2ccc(-c3cncnc3)cc2)C(O)[C@@H](O)[C@H]1O (stereo partly drawn) [FSA-212034],> 64 µg/mL

# Same assay, conditions: Escherichia coli, ATCC15922; E. coli ATCC 15922; read-out: MIC
row,Compound,MIC
1,CSC1O[C@H]([C@H](NC(=O)[C@H]2NC[C@@H]3C[C@@H](c4ccc(C(F)(F)F)cc4)CCO[C@H]32)[C@H](C)Cl)C(O)[C@@H](O)[C@H]1O (stereo partly drawn) [FSA-509019],> 64 µg/mL

# Tested on: P. aeruginosa MMX 3476 Δmex
# Test: MIC against P. aeruginosa MMX 3476 Δmex
# Type: cell-based
# Details: Pseudomonas aeruginosa
row,Compound,MIC
1,CSC1O[C@H]([C@H](NC(=O)[C@@H]2[C@@H]3OCC=CC[C@H]3CN2C)[C@H](C)Sc2ccc(-c3cncnc3)cc2)C(O)[C@@H](O)[C@H]1O (stereo partly drawn) [FSA-212034],> 64 µg/mL

# Tested on: S. aureus BAA 977 iErmA
# Test: MIC against S. aureus BAA 977 iErmA
# Type: cell-based
# Details: Staphylococcus aureus, BAA977
row,Compound,MIC
1,CSC1O[C@H]([C@H](NC(=O)[C@H]2NC[C@@H]3C[C@H]4C[C@H]4CO[C@H]32)[C@H](C)Cl)C(O)[C@@H](O)[C@H]1O (stereo in doubt) [FSA-507007],0.5 µg/mL

# Tested on: E. faecalis MMX 847 Macrolide-Resistant
# Test: MIC against E. faecalis MMX 847 Macrolide-Resistant
# Type: cell-based
# Details: Enterococcus faecalis
row,Compound,MIC
1,CSC1O[C@H]([C@H](NC(=O)[C@@H]2[C@@H]3OCC=CC[C@H]3CN2C)[C@H](C)Sc2ccc(-c3cncnc3)cc2)C(O)[C@@H](O)[C@H]1O (stereo partly drawn) [FSA-212034],> 64 µg/mL

# Same assay, conditions: Enterococcus faecalis; E. faecalis MMX 847 Macrolide-Resistant (MacRes); read-out: MIC
row,Compound,MIC
1,CSC1O[C@H]([C@H](NC(=O)[C@H]2NC[C@@H]3C[C@H]4C[C@H]4CO[C@H]32)[C@H](C)Cl)C(O)[C@@H](O)[C@H]1O (stereo in doubt) [FSA-507007],> 64 µg/mL

# Tested on: E. coli MMX 0121 ΔTolC
# Test: MIC against E. coli MMX 0121 ΔTolC
# Type: cell-based
# Details: Escherichia coli
row,Compound,MIC
1,CSC1O[C@H]([C@H](NC(=O)[C@H]2NC[C@@H]3C[C@H]4C[C@H]4CO[C@H]32)[C@H](C)Cl)C(O)[C@@H](O)[C@H]1O (stereo in doubt) [FSA-507007],8 µg/mL
2,CSC1O[C@H]([C@H](NC(=O)[C@@H]2[C@@H]3OCC=CC[C@H]3CN2C)[C@H](C)Sc2ccc(-c3cncnc3)cc2)C(O)[C@@H](O)[C@H]1O (stereo partly drawn) [FSA-212034],1 µg/mL

# Tested on: S. pyogenes MMX 946 Macrolide-Resistant
# Test: MIC against S. pyogenes MMX 946 Macrolide-Resistant
# Type: cell-based
# Details: Streptococcus pyogenes; S. pyogenes MMX 946 Macrolide-Resistant (MacRes); read-out: MIC
row,Compound,MIC
1,CSC1O[C@H]([C@H](NC(=O)[C@@H]2[C@@H]3OCC=CC[C@H]3CN2C)[C@H](C)Sc2ccc(-c3cncnc3)cc2)C(O)[C@@H](O)[C@H]1O (stereo partly drawn) [FSA-212034],2 µg/mL

# Tested on: S. pneumoniae ATCC 49619
# Test: MIC against S. pneumoniae ATCC 49619
# Type: cell-based
# Details: Streptococcus pneumoniae, ATCC49619; S. pneumoniae ATCC 49619; read-out: MIC
row,Compound,MIC
1,CSC1O[C@H]([C@H](NC(=O)[C@@H]2[C@@H]3OCC=CC[C@H]3CN2C)[C@H](C)Sc2ccc(-c3cncnc3)cc2)C(O)[C@@H](O)[C@H]1O (stereo partly drawn) [FSA-212034],≤ 0.06 µg/mL

# Tested on: H. influenzae ATCC 49247
# Test: MIC against H. influenzae ATCC 49247
# Type: cell-based
# Details: Haemophilus influenzae, ATCC49247; H. influenzae ATCC 49247; read-out: MIC
row,Compound,MIC
1,CSC1O[C@H]([C@H](NC(=O)[C@H]2NC[C@@H]3C[C@@H](c4ccc(C(F)(F)F)cc4)CCO[C@H]32)[C@H](C)Cl)C(O)[C@@H](O)[C@H]1O (stereo partly drawn) [FSA-509019],4 µg/mL
2,CSC1O[C@H]([C@H](NC(=O)[C@H]2NC[C@@H]3C[C@H]4C[C@H]4CO[C@H]32)[C@H](C)Cl)C(O)[C@@H](O)[C@H]1O (stereo in doubt) [FSA-507007],2 µg/mL
3,CSC1O[C@H]([C@H](NC(=O)[C@@H]2[C@@H]3OCC=CC[C@H]3CN2C)[C@H](C)Sc2ccc(-c3cncnc3)cc2)C(O)[C@@H](O)[C@H]1O (stereo partly drawn) [FSA-212034],4 µg/mL

# Tested on: E. coli MMX TolC parent strain
# Test: MIC against E. coli MMX TolC parent strain
# Type: cell-based
# Details: Escherichia coli
row,Compound,MIC
1,CSC1O[C@H]([C@H](NC(=O)[C@@H]2[C@@H]3OCC=CC[C@H]3CN2C)[C@H](C)Sc2ccc(-c3cncnc3)cc2)C(O)[C@@H](O)[C@H]1O (stereo partly drawn) [FSA-212034],> 64 µg/mL

# Same assay, conditions: Escherichia coli; E. coli MMX TolC parent strain; read-out: MIC
row,Compound,MIC
1,CSC1O[C@H]([C@H](NC(=O)[C@H]2NC[C@@H]3C[C@H]4C[C@H]4CO[C@H]32)[C@H](C)Cl)C(O)[C@@H](O)[C@H]1O (stereo in doubt) [FSA-507007],> 64 µg/mL

# Tested on: B. fragilis ATCC 25285
# Test: MIC against B. fragilis ATCC 25285
# Type: cell-based
# Details: Bacteroides fragilis, ATCC25285; B. fragilis ATCC 25285; read-out: MIC
row,Compound,MIC
1,CSC1O[C@H]([C@H](NC(=O)[C@@H]2[C@@H]3OCC=CC[C@H]3CN2C)[C@H](C)Sc2ccc(-c3cncnc3)cc2)C(O)[C@@H](O)[C@H]1O (stereo partly drawn) [FSA-212034],1 µg/mL

# Source: patent US20220073554A1, “LINCOSAMIDE ANTIBIOTICS AND USES THEREOF” (President and Fellows of Harvard College, priority 2017, published 2022)
